This is an account of results in patent US9708297B2, “CGRP receptor antagonists” (Eli Lilly and Company, priority 2015, dated 2017).

Experiment [1] concerns the target T1, hCGRP (human calcitonin gene-related peptide) receptor (Homo sapiens, UniProt O60894+Q16602).
T1 construct: SK-N-MC neuroblastoma cells (ATCC® HTB-10™) that endogenously express the hCGRP receptor; host or cells: SK-N-MC neuroblastoma cells
Put plainly: Inhibition of cAMP production by CGRP receptor antagonists (HTRF) in SK-N-MC cells. It counts as cell-based. Particulars: SK-N-MC cells endogenously expressing hCGRP receptor; human CGRP 0.8 nM as agonist; Kb=IC50/[1+([Agonist]/EC50)]; mean ± SEM. How it is done: The hCGRP (human calcitonin gene-related peptide) receptor is functionally coupled to the Gas proteins. Stimulation of hCGRP results in an increased synthesis of intracellular cAMP and can be blocked by the addition of receptor antagonists. Receptor activity is thus a reflection of the amount of cAMP present within cells which can be detected using standard in vitro technology.
Cultured SK-N-MC neuroblastoma cells (ATCC® HTB-10™) that endogenously express the hCGRP receptor are grown in Eagle's Minimum essential medium (HYCLONE™) supplemented with 10% heat-inactivated Fetal bovine serum (FBS; GIBCO®), Non-Essential Amino Acids (GIBCO®), 1 mM sodium pyruvate, 2 mM L-glutamine, 100 U/mL of penicillin, and 10 μg/mL of streptomycin to about 70% confluency. After providing fresh medium, the cells are incubated at 37° C. overnight. On the day of the assay, cells are detached using ACCUTASE® (MP Biomedicals), resuspended in assay buffer [Hank's Balanced Salt Solution/Dulbecco's phosphate-buffered saline with […] each of CaCl2 and MgCl2 mixed 1:2, 3.3 mM 4-(2-hydroxyethyl)-1-piperazineethanesulfonic acid, 0.03% bovine serum albumin, and 0.5 mM 1-methyl-3-isobutylxanthine (as inhibitor of […])], and seeded 3-5K/well into 384-well, poly-D-lysine coated white plates (BD Biosciences).
For dose-response studies, compounds are serially diluted 1:3 in dimethyl sulfoxide and then 1:10 into assay buffer. Human CGRP (0.8 nM; Bachem) as a receptor-specific agonist for the hCGRP receptor is mixed with diluted compound and added to the cells as the challenge stimulant at their EC80 concentrations.
The amount of intracellular cAMP is quantitated using HTRF technology (Cisbio) as per vendor instructions. Briefly, cAMP-d2 conjugate and anti-cAMP-cryptate conjugate in lysis buffer are incubated with the treated cells at RT for 90 min. The HTRF signal is immediately detected using an ENVISION® plate reader (Perkin-Elmer) to calculate the ratio of fluorescence at […]. The raw data are converted to cAMP amount (pmole/well) using a cAMP standard curve generated for each experiment. Relative EC50 values are calculated from the top-bottom range of the concentration response curve using a four-parameter logistic curve fitting program (ACTIVITYBASE® v5.3.1.22 or GENEDATA SCREENER® v12.0.4), and Kb values are estimated as agonist-corrected IC50 values using the equation: Kb=(IC50)/[1+([Agonist]/EC50)]. Estimated Kb values are reported as mean values±SEM, averaged from the number of runs (n).
Following the procedure essentially as described above, the compounds of Examples 1-12 have a Kb measured at human CGRP as shown in Table 3.
A general note: Changes in cAMP serve as a functional read-out for many G protein-coupled receptors.

The test system of the next experiment is CGRP receptor. Put plainly: Capsaicin-induced dermal blood flow (DBF), laser Doppler imaging, in nonhuman primates. Type of experiment: in vivo. Particulars: 90 min prior to capsaicin, cynomolgus NHP, compared to vehicle. An excerpt: Capsaicin-induced dermal blood flow (DBF) may be used as a target engagement biomarker to assess CGRP receptor activity in nonhuman primates (NHPs). Methods are adapted from earlier published procedures [Hershey et al., Regulatory Peptides, Volume 127, Issue 1-3, pp. 71-77, 2005].
Animal studies may be performed under protocols approved by the Covance Institutional Animal Care and Use Committee. Cynomolgus NHPs may be used given the close homology between NHP and human CGRP receptor. The study population may include healthy, CGRP antagonist naive cynomolgus NHP males weighing ˜3-4 kg.
Cynomolgus NHPs are enrolled in the study based on prescreening for capsaicin responsiveness. […] NHPs are used in a cross over design in which all NHPs received all doses after a two week wash-out period. Total n=10 NHPs per group. […]
Analysis and Statistics: LDI repeat scans are analyzed using Moor software v.5.2 (Moor Instruments, Wilmington, Del.) by region of interest signal analysis, and Microsoft Excel worksheets are used for averaging the signal from the regions of interest at a given time point. […] Analyzed data is entered into Graphpad PRISM® 4.0 for graphing and a repeated measurement mixed-effect model in SAS® 9.1 is used for statistical analysis. Data is expressed as mean+/−SD.

As a reminder, the Kb is the affinity of an antagonist, worked out from how it opposes an agonist.

T1 sequence (Q16602 23-461): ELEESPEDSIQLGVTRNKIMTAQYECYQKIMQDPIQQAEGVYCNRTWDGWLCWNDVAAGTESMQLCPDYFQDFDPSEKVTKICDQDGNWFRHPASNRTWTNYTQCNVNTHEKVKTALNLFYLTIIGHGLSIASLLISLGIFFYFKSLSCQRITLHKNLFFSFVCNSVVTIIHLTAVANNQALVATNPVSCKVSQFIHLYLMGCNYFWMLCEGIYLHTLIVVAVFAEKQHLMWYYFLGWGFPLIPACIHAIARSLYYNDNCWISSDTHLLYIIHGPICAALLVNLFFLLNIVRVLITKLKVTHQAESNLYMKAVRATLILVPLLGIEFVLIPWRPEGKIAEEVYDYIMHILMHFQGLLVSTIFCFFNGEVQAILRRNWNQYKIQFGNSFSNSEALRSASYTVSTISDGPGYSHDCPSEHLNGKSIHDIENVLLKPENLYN
T1 sequence (O60894 27-148): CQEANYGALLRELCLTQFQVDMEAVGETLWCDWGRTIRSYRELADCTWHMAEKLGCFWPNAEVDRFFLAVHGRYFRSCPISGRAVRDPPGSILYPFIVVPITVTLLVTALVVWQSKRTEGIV

For the compound `Cc1cc(CNC(=O)c2ccc([C@@H](C)[C@]3(C)CC(=O)NC3=O)cc2)cc(C)n1` [Example 1, N-[(2,6-dimethylpyridin-4-yl)methyl]-4-{(1R)-1-[(3S)-3-methyl-2,5-dioxopyrrolidin-3-yl]ethyl}benzamide], in experiment [1], the Kb was found to be 0.546 ± 0.226 nM. Moreover, the “group mean inhibition of capsaicin-induced blood flow increase” value in the experiment with CGRP receptor (3 mg/kg orally, p<0.003) was determined as 27.4%; in the experiment on CGRP receptor (30 mg/kg orally, p<0.00001) it was 40.6%.

Consider `Cc1cc(C)nc(CNC(=O)c2ccc([C@@H](C)[C@]3(C)CC(=O)NC3=O)cc2)c1` [Example 2, N-[(4,6-dimethyl-2-pyridyl)methyl]-4-[(l R)-1-[(3S)-3-methyl-2,5-dioxo-pyrrolidin-3-yl]ethyl]benzamide], for which the Kb in experiment [1] worked out at 2.22 ± 1.47 nM.

Consider `Cc1cc(C#N)nc(CNC(=O)c2ccc([C@@H](C)[C@]3(C)CC(=O)NC3=O)cc2)c1` [Example 3, N-[(6-cyano-4-methyl-2-pyridyl)methyl]-4-[(1R)-1-[(3S)-3-methyl-2,5-dioxo-pyrrolidin-3-yl]ethyl]benzamide], for which, in experiment [1], the Kb was found to be 1.51 ± 0.14 nM.

For `Cc1cc(CNC(=O)c2ccc([C@@H](C)[C@]3(C)CC(=O)NC3=O)cc2)cc(C#N)n1` [Example 4, N-[(2-cyano-6-methyl-4-pyridyl)methyl]-4-[(1R)-1-[(3S)-3-methyl-2,5-dioxo-pyrrolidin-3-yl]ethyl]benzamide], the Kb in experiment [1] is 23.5 ± 0.925 nM.

`Cc1cc(CNC(=O)c2ccc([C@@H](C)[C@]3(C)CC(=O)NC3=O)cc2)cc(C(C)C)n1` [Example 5, N-[(2-isopropyl-6-methyl-4-pyridyl)methyl]-4-[(R)-1-[(3S)-3-methyl-2,5-dioxo-pyrrolidin-3-yl]ethyl]benzamide]: the Kb in experiment [1] came out at 0.718 ± 0.0045 nM.

For `Cc1cc(CNC(=O)c2ccc([C@@H](C)[C@]3(C)CC(=O)NC3=O)cc2)cc(C2CC2)n1` [Example 6, N-[(2-cyclopropyl-6-methyl-4-pyridyl)methyl]-4-[(1R)-1-[(3S)-3-methyl-2,5-dioxo-pyrrolidin-3-yl]ethyl]benzamide], the Kb in experiment [1] is 0.375 ± 0.172 nM.

As for `Cc1cc(CNC(=O)c2ccc([C@@H](C)[C@]3(C)CC(=O)NC3=O)cc2)nc(C2CC2)c1` [Example 7, N-[(6-cyclopropyl-4-methyl-2-pyridyl)methyl]-4-[(1R)-1-[(3S)-3-methyl-2,5-dioxo-pyrrolidin-3-yl]ethyl]benzamide], in experiment [1], the Kb amounted to 0.582 ± 0.228 nM.

In the case of `Cc1cc(CNC(=O)c2ccc([C@@H](C)[C@]3(C)CC(=O)NC3=O)cn2)cc(C)n1` [Example 8, N-[(2,6-dimethyl-4-pyridyl)methyl]-5-[(1R)-1-[(3S)-3-methyl-2,5-dioxo-pyrrolidin-3-yl]ethyl]pyridine-2-carboxamide], the Kb in experiment [1] was determined as 1.25 ± 0.0045 nM.

Turning to `Cc1cc(CNC(=O)c2ccc([C@@H](C)[C@]3(C)CC(=O)NC3=O)cn2)cc(C2CC2)n1` [Example 9, N-[(2-cyclopropyl-6-methyl-4-pyridyl)methyl]-5-[(1R)-1-[(3S)-3-methyl-2,5-dioxo-pyrrolidin-3-yl]ethyl]pyridine-2-carboxamide], in experiment [1], the Kb is 1.15 ± 0.181 nM.

As to `CCc1cc(CNC(=O)c2ccc([C@@H](C)[C@]3(C)CC(=O)NC3=O)cc2)cc(C)n1` [Example 10, N-[(2-ethyl-6-methylpyridin-4-yl)methyl]-4-{(1R)-1-[(3S)-3-methyl-2,5-dioxopyrrolidin-3-yl]ethyl}benzamide], in experiment [1], the Kb turned out to be 0.6 ± 0.0431 nM.

As for `Cc1cc(CNC(=O)c2ccc([C@@H](C)[C@]3(C)CC(=O)NC3=O)cc2)cc(C2CCC2)n1` [Example 11, N-[(2-cyclobutyl-6-methylpyridin-4-yl)methyl]-4-{(1R)-1-[(3S)-3-methyl-2,5-dioxopyrrolidin-3-yl]ethyl}benzamide], the antagonist equilibrium constant (Kb) in experiment [1] worked out at 0.11 ± 0.011 nM.

As for `Cc1cc(CNC(=O)c2ccc([C@@H](C)[C@]3(C)CC(=O)NC3=O)cc2)cc(C2CCCC2)n1` [Example 12, N-[(2-cyclopentyl-6-methylpyridin-4-yl)methyl]-4-{(1R)-1-[(3S)-3-methyl-2,5-dioxopyrrolidin-3-yl]ethyl}benzamide], the Kb in experiment [1] was found to be 0.295 ± 0.056 nM.
